The text below walks through data of patent US20230089867A1, “CYCLIC PENTAMER COMPOUNDS AS PROPROTEIN CONVERTASE SUBTILISIN/KEXIN TYPE 9 (PCSK9) INHIBITORS FOR THE TREATMENT OF METABOLIC DISORDER” (Novartis AG, priority 2018, published 2023).

In this assay the target is human PCSK9 (Homo sapiens, UniProt Q8NBP7). Description: PCSK9 ligand binding TR-FRET assay (interference with binding of human PCSK9 to human LDLR). The conditions noted are these: for Max % inhibition: PCSK9 FRET assay, efficacy (Amax), 100% = 1 uM unlabeled human PCSK9, 0% = DMSO; for IC50: TR-FRET, human PCSK9 Alexa Fluor 647 / human LDLR extracellular domain-Europium Kryptate, read-out: PCSK9 FRET Assay IC50. In a few lines: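 Threefold compound dilutions were pre-incubated 30 min with PCSK9, after which 4 nM Europium Kryptate-tagged human LDLR ectodomain was added for a further 2 h.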
Chain of human PCSK9 (Q8NBP7 153-692): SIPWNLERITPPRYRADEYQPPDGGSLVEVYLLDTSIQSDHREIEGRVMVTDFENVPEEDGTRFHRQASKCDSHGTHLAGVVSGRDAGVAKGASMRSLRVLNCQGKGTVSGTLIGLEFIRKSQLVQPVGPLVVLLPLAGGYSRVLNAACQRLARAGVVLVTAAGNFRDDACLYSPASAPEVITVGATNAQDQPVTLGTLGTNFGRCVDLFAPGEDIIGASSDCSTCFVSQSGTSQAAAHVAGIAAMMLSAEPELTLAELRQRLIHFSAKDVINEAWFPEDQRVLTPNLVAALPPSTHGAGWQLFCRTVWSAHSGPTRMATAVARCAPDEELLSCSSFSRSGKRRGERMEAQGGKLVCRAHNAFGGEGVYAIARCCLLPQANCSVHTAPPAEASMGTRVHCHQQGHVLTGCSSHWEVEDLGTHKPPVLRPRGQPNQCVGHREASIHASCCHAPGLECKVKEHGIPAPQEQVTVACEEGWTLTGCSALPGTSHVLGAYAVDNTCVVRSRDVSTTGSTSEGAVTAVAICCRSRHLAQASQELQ
Chain of human PCSK9 (Q8NBP7 31-152 partner limits assumed): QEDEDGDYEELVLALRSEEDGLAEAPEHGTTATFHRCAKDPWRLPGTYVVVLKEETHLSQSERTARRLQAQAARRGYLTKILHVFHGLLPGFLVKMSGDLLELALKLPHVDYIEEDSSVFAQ

Consider `COC[C@@H]1NC(=O)[C@H](C)N(Cc2ccc(Cl)cc2Oc2ccc(-c3cnc(CN4CC[C@H](O)C4)n3C)cc2)C(=O)C[C@@H](Cc2ccccc2)C(=O)N(C)[C@@H](C)CNC(=O)C[C@H](Cc2ccc(Cl)cc2)N(C)C1=O` [Compound 220, (2S,5S,8S,13S,16R)-16-benzyl-1-(4-chloro-2-(4-(2-(((S)-3-hydroxypyrrolidin-1-yl)methyl)-1-methyl-1H-imidazol-5-yl)phenoxy)benzyl)-8-(4-chlorobenzyl)-5-(methoxymethyl)-2,7,13,14-tetramethyl-1,4,7,11,14-pentaazacyclooctadecane-3,6,10,15,18-pentaone], for which the Max % inhibition is listed as 94.82% and the IC50 was determined as 2.1 nM.
As for `CNC(=O)C[C@@H]1NC(=O)[C@H](C)N(Cc2ccc(Cl)cc2Oc2ccc(-c3cnc(CN(C)C)n3C)cc2)C(=O)C[C@@H](Cc2ccccc2)C(=O)N(C)[C@@H](C)CNC(=O)C[C@H](Cc2ccc(Cl)cc2)N(C)C1=O` [Compound 221, 2-((2S,5S,8S,13S,16R)-16-benzyl-1-(4-chloro-2-(4-(2-((dimethylamino)methyl)-1-methyl-1H-imidazol-5-yl)phenoxy)benzyl)-8-(4-chlorobenzyl)-2,7,13,14-tetramethyl-3,6,10,15,18-pentaoxo-1,4,7,11,14-pentaazacyclooctadecan-5-yl)-N-methylacetamide], the Max % inhibition is on record as 98.35% and the IC50 amounted to 1.4 nM.
Regarding `CCc1ccc(CN2C(=O)C[C@@H](Cc3ccccc3)C(=O)N(C)[C@H]3CCCC[C@@H]3NC(=O)C[C@H](Cc3ccc(Cl)cc3)N(C)C(=O)[C@H](COC)NC(=O)[C@@H]2C)c(Oc2ccc(-c3cnc(CN4CCCC4)n3C)cc2)c1` [Compound 223, (4S,7S,10S,14R,16aS,20aS)-14-benzyl-4-(4-chlorobenzyl)-11-(4-ethyl-2-(4-(1-methyl-2-(pyrrolidin-1-ylmethyl)-1H-imidazol-5-yl)phenoxy)benzyl)-7-(methoxymethyl)-5,10,16-trimethylhexadecahydrobenzo[l][1,4,7,11,14]pentaazacyclooctadecine-2,6,9,12,15(3H)-pentaone], the Max % inhibition turned out to be 100.16% and the IC50 came to 1.8 nM.
For `COC[C@@H]1NC(=O)[C@H](C)N(Cc2ccc(Cl)cc2Oc2ccc(-c3cnc(CN(C)C)n3C)cc2)C(=O)C[C@@H](Cc2ccccc2)C(=O)N(C)[C@@H]2CCOC[C@H]2NC(=O)C[C@H](Cc2ccc(Cl)cc2)N(C)C1=O` [Compound 224, (4S,7S,10S,14R,16aR,20aS)-14-benzyl-11-(4-chloro-2-(4-(2-((dimethylamino)methyl)-1-methyl-1H-imidazol-5-yl)phenoxy)benzyl)-4-(4-chlorobenzyl)-7-(methoxymethyl)-5,10,16-trimethyltetradecahydro-1H-pyrano[3,4-l][1,4,7,11,14]pentaazacyclooctadecine-2,6,9,12,15(3H)-pentaone], in that order: 95.15% and 650 nM.
For `COC[C@@H]1NC(=O)[C@H](CCCCN(C)C)N(Cc2ccc(Cl)cc2Oc2ccc(-c3cnc(CN(C)C)n3C)cc2)C(=O)C[C@@H](Cc2ccccc2)C(=O)N(C)[C@@H](C)CNC(=O)C[C@H](Cc2ccc(Cl)cc2)N(C)C1=O` [Compound 225, (2S,5S,8S,13S,16R)-16-benzyl-1-(4-chloro-2-(4-(2-((dimethylamino)methyl)-1-methyl-1H-imidazol-5-yl)phenoxy)benzyl)-8-(4-chlorobenzyl)-2-(4-(dimethylamino)butyl)-5-(methoxymethyl)-7,13,14-trimethyl-1,4,7,11,14-pentaazacyclooctadecane-3,6,10,15,18-pentaone], in that order: 98.86% and 8 nM.
